The source of these data is article PMC5267425, “Identification of small molecule modulators of HIV-1 Tat and Rev protein accumulation” (Retrovirology, 2017).

The test system of one data set is PBMCs. Put plainly: Trypan blue exclusion, PBMCs. Format: cell-based, human. As to conditions: PBMCs. The protocol:
To examine the effect of compounds on viral replication, studies were carried out in peripheral blood mononuclear cells (PBMCs). PBMCs were isolated from healthy (HIV-uninfected) volunteer blood donors as described by Dobson-Belaire et al.. Informed consent was obtained from participants in accordance with the guidelines for conduct of clinical research at the University of Toronto and St. Michael’s Hospital, Toronto, Ontario, Canada. Stored PBMCs were thawed, washed with RPMI 1640 complete medium and cultured in RPMI 1640 complete medium containing 2 μg/mL of PHA-L (Sigma-Aldrich) and 20 U/mL of IL-2 (BD Pharmingen) for 72 h. Subsequently, cells were counted and a portion of the cells was separated to another tube for uninfected control treatments. The remaining PBMCs were resuspended in media containing HIV-1 BaL at a multiplicity of infection (MOI) of approximately 0.01 and infected by spinoculation, following which cells were washed twice with room temperature RPMI 1640 complete medium and resuspended to a concentration of 5 × 10^5 cells/mL in complete RPMI 1640 containing 20 U/mL of IL-2. Compounds were added to infected PBMCs or uninfected control PBMCs. Azidothymidine (AZT, Sigma-Aldrich) was used as control treatment at a final concentration of 3.74 μM. On day 4 post infection, culture medium was replenished with the compounds and IL-2 in fresh complete RPMI 1640. On days 2, 4, 6 and 8 post infection, culture supernatant was harvested, virus lysed by adjusting to 1% TritonX-100 and stored at −20 °C for p24 antigen ELISA. A fraction of the culture was harvested to assess percent cell viability by trypan blue exclusion using Glasstic slides (Kova). Relative percent cell viability in compound treated samples versus DMSO-control treated samples was calculated as follows: (total viable cells/total cells)compound/(total viable cells/total cells)DMSO.

Data set [1] in a line: XTT assay, SupT1 24STNLESG cells. Format: cell-based. The following applies: human. The protocol: Additional file 1: Figure S1. 791 and 833 Suppress HIV-1 Gene Expression in SupT1 24NESLG Cell Line. a Schematic of HIV-1 provirus used to generated the stably transduced SupT1 cell line. b Effect of 791 and 833 on Gag expression in SupT1 NLESG cells. Cells were treated with indicated concentrations of 791/833 then HIV-1 expression induced by PMA addition. Media harvested after 24 h was subsequently assayed using Gag (p24) ELISA. Cell viability was measured by an XTT assay. 892 was not active in this cell line at the concentrations tested Additional file 2: Figure S7. Effect of compounds on CEM-GXR cell viability. Evaluation of 791, 833, and 892 on CEM-GXR cell viability in the Guava ViaCount assay. Cells were analyzed after 24 h incubation with the compounds at the indicated concentrations ranging between 0–47 μM (791), 0–5 μM (833), or 0–62.5 μM (892). Results are expressed as the percentage (%) of viable cells relative to DMSO treatment ±SEM of two independent experiments performed in triplicate. […] Images are cropped to show a representative field of view. b The dose range of the compounds which inhibit HIV-1 GagGFP expression in HeLa rtTA HIVGagGFP C7 cells was measured by mean fluorescence intensity and expressed relative to fluorescence intensity in DMSO-treated samples (N ≥ 3, *p ≤ 0.05, **p ≤ 0.01, and ***p ≤ 0.001). […]
For orientation: Tetrazolium dyes change colour on reduction, which living cells bring about.

Data set [2] has as its system HeLa rtTA HIV∆Mls cells. The data set can be described thus: Trypan blue exclusion, HeLa. Format: cell-based. The following applies: up to 10 µM. How it is done:
(§1) Effects of compound treatment on cellular metabolism was assessed by an XTT-based in vitro toxicology assay kit (Sigma-Aldrich) or Trypan blue exclusion (Life Technologies) as proxy for degree of cytotoxicity and expressed relative to DMSO control treatment. For measurement of cell viability using XTT, culture media was removed after 24, 72, and 96 h of compound treatment, replaced with 20% XTT solution and incubated at 37 °C in a 5% CO2 humidified incubator for 2–6 h, and relative cell viability was measured in compound treated cells relative to DMSO-treated cells. Cell viability measurements in CEM-GXR cells are described above.

Data set [3] has as its system HeLa rtTA HIV∆Mls cells. The data set can be described thus: XTT cell metabolism/viability assay, HeLa. Format: cell-based. As to conditions: for cell viability at dose required to reduce Gag expression by >80%: XTT and Trypan blue exclusion, 791 20 µM, 833 10 µM. The protocol:
as §1

Where only a bound is given, the exact number is not on record here.

For `O=C(NC(=S)NNC(=O)c1ccccc1O)c1ccc(-c2ccccc2)cc1` [Compound 833, N-([2-(2-hydroxybenzoyl)hydrazino]carbonothioyl}-4-biphenylcarboxamide], in the data set on PBMCs, the “toxicity at concentrations required to block HIV-1 replication” value is reported as “displayed toxicity”. Also, in data set [1], the 50% cytotoxic concentration (CC50) – broadly, the concentration giving 50% cytotoxicity – at 24 h was above 20 µM. Further, the Trypan blue exclusion entry in the data set on HeLa rtTA HIV∆Mls cells [2] is listed as “no change”. Besides, the “cell viability at dose required to reduce Gag expression by >80%” value in the data set with HeLa rtTA HIV∆Mls cells [3] is listed as “not affected”. Also, in the data set with HeLa rtTA HIV∆Mls cells [3] (up to 10 µM), the “mitochondrial function by XTT” value is “some reduction in mitochondrial function”.

Turning to `Cc1cc(NCc2cccnc2)n2ncc(-c3ccc(Cl)cc3)c2n1` [Compound 791, 3-(4-chlorophenyl)-5-methyl-N-(3-pyridinylmethyl)pyrazolo[1,5-a]pyrimidin-7-amine], the cytotoxic concentration (CC50) at 24 h in data set [1] was above 60 µM. Further, in the data set with HeLa rtTA HIV∆Mls cells [3] (1, 3 and 4 days post-treatment, in comparison to 833 and 892 (Figure S5)), the “toxicity on extended culture (cell proliferation by XTT)” value is “reduced toxicity”. Moreover, the “cell viability at dose required to reduce Gag expression by >80%” value with HeLa rtTA HIV∆Mls cells [3] was “not affected”.

`COc1ccc(C=NNC(=O)c2ccccc2O)cc1O` [Compound 892, 2-hydroxy-N′-(3-hydroxy-4-methoxybenzylidene)benzohydrazide]: the “toxicity at concentrations required to block HIV-1 replication” value with PBMCs was “displayed toxicity”.
